Data as given in US10376506B2, “Use of an opioid receptor antagonist with kappa-activity and vortioxetine for treatment of depressive disorder with melancholic features” (H. Lundbeck A/S, priority 2013, dated 2019).
Where a name gives a salt, the structure may show the parent alone.

Legend:
[1] = Body weights in the CMS study
Procedure: (§1) On the basis of their sucrose intakes following 2 weeks of initial stress, both stressed and control groups were each divided further into matched subgroups (n=8), and for subsequent five weeks they received daily IP administration of vehicle (0.9% saline, 1 ml/kg), Vortioxetine (10 mg/kg), Nalmefene (1 mg/kg), joint injections of Vortioxetine (10 mg/kg) and Nalmefene (1 mg/kg) or imipramine HCl (10 mg/kg) as the reference treatment. The volume of all injections was 1 ml/kg. The drugs were administered at approx. 10.00 and the weekly sucrose tests were carried out 24 h following the last drug injections. After five weeks all treatments were terminated and one additional sucrose test was carried out following one week of withdrawal. Stress was continued throughout the entire period of treatment and withdrawal.

Male Wistar rats = experiment: Sucrose preference test (chronic mild stress model, CMS); type: in vivo, rat; settings: for effect on sucrose intakes in control animals, compared to vehicle: control rats; for effect on sucrose intakes in control animals, compared to vehicle / effect on sucrose consumption in stressed animals, compared to vehicle: daily IP for five weeks, imipramine 10 mg/kg, vortioxetine 10 mg/kg, nalmefene 1 mg/kg, 1% sucrose solution; for effect on sucrose consumption in stressed animals, compared to vehicle: rats exposed to chronic mild stress; for weeks of treatment after which increase in sucrose intakes reached statistical significance versus Week 0 / overall effect in the CMS model (conclusion): stressed animals; for weeks of treatment after which increase in sucrose intakes reached statistical significance versus Week 0: daily IP; for overall effect in the CMS model (conclusion): five weeks of treatment
Excerpt: Rodents inherently have an interest in sweet foods or liquids. Exposure to stressfull conditions reduces the interest for sweet foods or solutions, indicating a reduced sensitivity to rewards. This can be assessed for example in a sucrose preference test, where the stress-induced reduction of intake of a sucrose solution is used as a measure of anhedonia (reduces sensitivity to rewards). This stress-induced reduction of sucrose intake in the rat is a well-established animal model of anhedonia (Nielsen, Arnt and Sánchez. Intracranial self-stimulation and sucrose intake differ as hedonic measures following chronic mild stress: interstrain and interindividual differences. Behav. Brain. Res. (2000), 107 (1-2): 21-33).
Male Wistar rats (Charles River, Germany) were brought into the laboratory one month before the start of the experiment. Except as described below, the animals were singly housed with food and water freely available, and were maintained on a 12-h light/dark cycle (lights on at 08.00) and in a constant temperature (22±2° C.) and humidity (50±5%) conditions. All procedures used in this study are conformed to the rules and principles of the 86/609/EEC Directive, and were approved by the Local Bioethical Committee at the Institute of Pharmacology, Polish Academy of Sciences, Krakow, Poland.
After a period of 3 weeks of adaptation to laboratory and housing conditions, the animals were trained to consume a 1% sucrose solution; training consisted of nine 1 h baseline tests in which sucrose was presented, in the home cage, following 14 h food and water deprivation. The sucrose intake was measured by weighing pre-weighed bottles containing the sucrose solution, at the end of the test. Subsequently, sucrose consumption was monitored, under similar conditions, at weekly intervals throughout the whole experiment.
On the basis of their sucrose intakes in the final baseline test, the animals were divided into two matched groups. One group of animals was subjected to the chronic mild stress procedure for a period of 8 consecutive weeks. Each week of stress regime consisted of: two periods of food or water deprivation, two periods of 45 degree cage tilt, two periods of intermittent illumination (lights on and off every 2 h), two periods of soiled cage (250 ml water in sawdust bedding), one period of paired housing, two periods of low intensity stroboscopic illumination (150 flashes/min), and three periods of no stress. All stressors were 10-14 h of duration and were applied individually and continuously, day and night. […] They were deprived of food and water for 14 h preceding each sucrose test, but otherwise food and water were freely available in the home cage.
as §1
The Fisher's LSD test was used for post-hoc comparisons of means.

μ-opioid receptors = μ-opioid receptors (Homo sapiens, UniProt P35372); settings: in vitro studies; cited from earlier work
δ-opioid receptors = δ-opioid receptors (Homo sapiens, UniProt P41143); settings: in vitro studies; cited from earlier work
κ-opioid receptors = κ-opioid receptors (Homo sapiens, UniProt P41145); settings: in vitro studies; cited from earlier work
Chain of κ-opioid receptors (P41145 whole entry): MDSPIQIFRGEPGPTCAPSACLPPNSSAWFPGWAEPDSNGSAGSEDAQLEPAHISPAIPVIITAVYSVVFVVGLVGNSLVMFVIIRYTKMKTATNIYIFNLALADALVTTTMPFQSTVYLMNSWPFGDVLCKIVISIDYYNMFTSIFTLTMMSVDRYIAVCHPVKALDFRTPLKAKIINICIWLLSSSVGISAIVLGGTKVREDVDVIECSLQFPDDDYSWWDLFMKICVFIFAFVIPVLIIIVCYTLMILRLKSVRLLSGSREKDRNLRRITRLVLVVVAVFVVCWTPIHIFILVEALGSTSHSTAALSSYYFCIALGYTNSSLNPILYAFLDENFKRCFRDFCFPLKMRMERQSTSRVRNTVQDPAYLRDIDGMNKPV

Chain of δ-opioid receptors (P41143 whole entry): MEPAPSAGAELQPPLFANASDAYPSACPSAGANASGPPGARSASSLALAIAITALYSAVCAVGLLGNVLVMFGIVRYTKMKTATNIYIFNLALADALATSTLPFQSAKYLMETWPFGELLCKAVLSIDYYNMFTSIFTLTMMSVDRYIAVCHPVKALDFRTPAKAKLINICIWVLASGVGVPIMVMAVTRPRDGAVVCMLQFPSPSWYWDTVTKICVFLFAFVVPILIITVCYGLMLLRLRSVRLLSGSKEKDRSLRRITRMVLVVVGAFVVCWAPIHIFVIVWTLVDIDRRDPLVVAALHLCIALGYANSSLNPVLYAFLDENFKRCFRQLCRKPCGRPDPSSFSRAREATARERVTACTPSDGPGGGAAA
Chain of μ-opioid receptors (P35372 whole entry): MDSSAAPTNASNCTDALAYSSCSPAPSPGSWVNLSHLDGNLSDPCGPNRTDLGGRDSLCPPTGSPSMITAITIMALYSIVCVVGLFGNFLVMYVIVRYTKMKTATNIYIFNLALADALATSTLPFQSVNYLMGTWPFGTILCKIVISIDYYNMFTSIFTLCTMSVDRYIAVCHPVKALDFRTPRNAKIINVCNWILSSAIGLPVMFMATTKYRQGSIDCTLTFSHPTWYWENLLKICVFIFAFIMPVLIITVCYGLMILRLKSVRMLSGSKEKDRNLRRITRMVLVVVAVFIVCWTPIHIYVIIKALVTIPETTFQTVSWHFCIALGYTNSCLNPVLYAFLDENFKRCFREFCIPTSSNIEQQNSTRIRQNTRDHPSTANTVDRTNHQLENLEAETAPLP

Row | Structure (SMILES) | Body weights after five weeks of treatment (means ± SEM), Controls ([1]; control rats, daily IP) [g] | effect on body weight compared to vehicle-treated group ([1]; rat, in vivo) | Body weights after five weeks of treatment (means ± SEM), Stressed ([1]; stressed rats, daily IP) [g] | effect on sucrose intakes in control animals, compared to vehicle (Male Wistar rats) | effect on sucrose consumption in stressed animals, compared to vehicle (Male Wistar rats) | weeks of treatment after which increase in sucrose intakes reached statistical significance versus Week 0 (Male Wistar rats) | overall effect in the CMS model (conclusion) (Male Wistar rats) | functional activity at the μ receptor (μ-opioid receptors) | functional activity at the δ receptor (δ-opioid receptors) | functional activity at the κ receptor (κ-opioid receptors) | effect on body weight compared to vehicle-treated group ([1]; control and stressed animals, decreases p<0.05 in controls, NS in stressed) | Body weights after five weeks of treatment (means ± SEM), Controls ([1]; rat, in vivo, ip) [g] | Body weights after five weeks of treatment (means ± SEM), Stressed ([1]; rat, in vivo, ip) [g]
1 | CN(C)CCCN1c2ccccc2CCc2ccccc21 [Imipramine, imipramine HCl] | 350 ± 7 | decreased | 326 ± 7 | no significant effect | gradually increased | three | fully reversed | – | – | – | – | – | –
2 | C=C1CC[C@@]2(O)[C@H]3Cc4ccc(O)c5c4[C@@]2(CCN3CC2CC2)[C@H]1O5 [Nalmefene, 17-(cyclopropylmethyl)-4,5-alpha-epoxy-6-methylenemorphinan-3,14-diol] | 371 ± 9 | – | 355 ± 11 | no effect | gradually increased | four | effective | antagonist activity | antagonist activity | partial agonist activity | did not affect | – | –
3 | Cc1ccc(Sc2ccccc2N2CCNCC2)c(C)c1 [Vortioxetine, 1-[2-(2,4-dimethyl-phenylsulfanyl)-phenyl]-piperazine] | – | decreased | – | no significant effect | no significant effect | – | not effective | – | – | – | – | 348 ± 9 | 328 ± 9
